# Test results as given in PMC4683533, “Discovery of novel INK4C small-molecule inhibitors to promote human and murine hematopoietic stem cell ex vivo expansion” (Scientific Reports, 2015).
# “Also recorded” adds a separate entry of the source.
# Experiments:
# HSCs (bone marrow MNCs) = experiment: cobblestone area forming cells (CAFC) assay with limiting dilution assay (LDA); type: cell-based, mouse; settings: day 35
# Description: We also investigated whether the increased number of phenotypic SLAM^+LT-HSCs in short-term culture assays was correlated with an increase in functional LT-HSCs. Cobblestone area forming cells (CAFC) assay combined with limiting-dilution assays (LDA) were performed to measure the frequency of HSCs[19][22][30]. Compared with the control group (HSC frequency is 1 in 112,559 of the original plated cells), the frequency of HSC at day 35 (indicating the activity of hematopoietic reconstitution capacity) was 2.7-fold and 3.0-fold higher in the cultures treated with XIE18–6 (HSC frequency is 1 in 42,490 of the original plated cells) and compound 40 (HSC frequency is 1 in 37,524 of the original plated cells) (p < 0.001, Fig. 3C), respectively.
# Freshly isolated bone marrow MNCs from mice, 6–8 weeks old, were plated in a 24-well plate with 1 mL Dexter’s medium at a density of 2 × 10^6 cells per mL in the absence or presence of different doses of the tested compounds. The culture was maintained at 33 °C with 5% CO2. The number of cobblestone areas (CAs) was counted weekly. The medium was also replaced with half fresh medium on a weekly basis. For the limiting dilution analysis (LDA) of the test cells, different limiting doses were plated on the irradiated stromal cells in 96-well plates containing 200 μL of M5300 medium (StemCell Technologies) supplemented with 10^−6 M hydrocortisone. Each group was done with 20 replicates well. Small-molecule compounds were added to the co-culture system at different doses. Half of the medium in each well was replaced with fresh medium containing the test compounds weekly. The existence of CA in each well was evaluated under an inverted microscope at weekly intervals for 5 weeks. Based on the Poisson distribution of the negative wells, the frequency of long-term initiating cells was calculated with L-Calc software (StemCell Technologies).
# [1] = tested on: c-Kit enriched BM cells (primary hematopoietic cells); experiment: apoptosis analysis by Annexin V staining; type: cell-based; settings: effective concentration (20 μM), 5 days, compared with negative control group
# Description: First, a cell-proliferation assay was performed on the immortalized myeloblast-like cell line 32D cells to evaluate general cytotoxicity. […] We also evaluated cytotoxicity using primary hematopoietic cells.
# Figure 6 Cytotoxicity assessment of top p18SMI compounds. (A) Cell proliferation assay was performed on 32D cells to evaluate general cytotoxicity. The cell survival was determined by the MTT assay. (B) Apoptosis statistics analysis of cultured c-Kit enriched BM cells which were cultured with cytokine plus 20 μM compound 40 or DMSO. Uncultured bone marrow cells were irradiated by UV to serve as positive control. Apoptosis was checked by Annexin V staining on hematopoietic cells. (C,D) Proliferation effect of compound 40 on leukemia cell lines KG-1 and KG-1a. The cell survival was determined with the MTT assay. Data is mean ± SEM for all experiments of two or more and were performed in duplicate or triplicate.
# c-Kit enriched BM cells were cultured for 5 days with cytokine combination plus compound 40 or DMSO. […] Apoptosis and cell death were measured by AnnexinV and DAPI staining according to the manufacturer’s instructions in the Annexin V-FITC Apoptosis Detection Kit (BD Biosciences). Apoptosis was measured on an FACS analyzer (LSR Fortessa, BD Biosciences). The data was analyzed using FlowJo software (Treestar, Inc.).
# [2] = tested on: c-Kit-enriched mouse BM cells (HSPC, LT-HSCs); experiment: ex vivo bulk culture of c-Kit-enriched BM cells with flow cytometry phenotyping; type: cell-based; settings: 5 days culture with cytokines
# Description: To investigate the effect of p18SMI compounds on murine HSCs, c-Kit-enriched mouse BM cells were cultured for 5 days with media containing cytokines and the p18SMI compounds. […] Lin^−Sca-1^+(LS) cells were further analyzed using a combination of CD150 and CD48 (SLAM code) biomarkers for HSC identification. CD150^+ CD48^−KSLs (hereafter referred to as SLAM^+) cells are enriched for long term (LT)-HSCs.
# HSCs expansion medium consists of BIT9500 (Stem Cell Technologies) supplemented with 50 ng/mL recombinant mouse (rm) SCF, 20 ng/mL FMS-like tyrosine kinase 3 ligand (Flt3L) and 10 ng/mL thrombopoietin (Tpo) (all from PeproTech, Inc.). p18SMI compounds were added where indicated. Bone marrow cells were harvested from C57BL/6 mice and made into a single-cell suspension. After immunomagnetic c-Kit enrichment (cKit-conjugated microbeads [MiltenyiBiotec, Bergisch-Gladbach]), cells were washed and resuspended in HSCs expansion medium. After culture, total nucleated cell counts were obtained, and a fraction of mononuclear cells (MNCs) or whole bone marrow cells were stained for flow cytometry analysis. Frequency of each cell population was determined by independently analyzing more than 5 × 10^5 cells per sample in triplicate.
# For stem-cell quantitation, the cultured bone marrow nucleated cells were co-stained with a combination of PE-Cy7 labeled antibodies against mouse CD3, CD4, CD8, B220, Gr-1, Mac-1 and TER-119, anti-Sca-1-PercpCy5.5, anti-CD48-PE and anti-CD150-APC (all from Biolegend). DAPI was used for dead-cell discrimination. Due to the presence of cytokine stem cell factor (SCF), we could not detect the c-Kit marker of those cultured cells. […] Flow cytometry and flow sorting were conducted with a CyAn (DakoCytomation) or a FACSCalibur system (BD Biosciences). FlowJo software Version 7.6.2 (TreeStar) was used for data analysis.
# KG-1a = experiment: MTT proliferation assay on leukemia cell line; type: cell-based
# From the text: (§1) With confirmation of compound 40 promoting the expansion of HSCs, we further examined whether it might also increase the risk of malignant diseases. In order to determine the effect of compound 40 on hematological tumorigenesis, proliferation of both leukemia cell lines (KG-1 and KG-1a) and myeloma cell lines (MM.1S and RPMI 8226) was further investigated by a standard MTT assay.
# (§2) To evaluate the toxicity of our top compounds, we performed a cell proliferation assay using 32D cells as well as leukemia cell lines and myeloma cell lines. Weihi-3 cells were cultured at 37 °C under 5% CO2 in RPMI 1640 medium supplemented with 10%FBS. After 48 h, the supernatant was collected and filtered. 32D cells were cultured in RPMI 1640 with 10% FBS and 10% supernatant collected from Weihi-3 cells. 8,000 32D cells or leukemia cell line (KG-1 or KG-1a) or myeloma cell line (MM.1S or RPMI 8226) were plated in a 96-well plate in 198 μL culture media per well, and then cultured (37 °C, 5% CO2) overnight. 2 μL of serially diluted compounds dissolved in saline or DMSO were added to each well and incubated (37 °C, 5% CO2) for 72 h. The concentration of DMSO was equal to the one in corresponding compound group. 20 μL of MTT solution was added to each well and then incubated (37 °C, 5% CO2) for 4 h. The percentage of cell survival was determined using the MTT assay, as previously described. The data was analyzed using GraphPad Prism v6.0.
# KG-1 = experiment: MTT proliferation assay on leukemia cell line; type: cell-based
# From the text: as §1, §2
smiles,measurement,setting,value
"O=C([O-])c1ccc(S(=O)(=O)NC2CCCCC2)cc1.[Na+] [Compound 40, sodium 4-(N-cyclohexylsulfamoyl)benzoate]",HSC frequency (1 in x of the original plated cells),HSCs (bone marrow MNCs),"37,524"
same,"frequency of HSC, fold higher than control group",HSCs (bone marrow MNCs),3.0 fold
same,cytotoxicity / apoptotic cell death in primary hematopoietic cells (HSCs),[1],did not show significant cytotoxicity; also recorded: did not increase apoptotic cell death; also recorded: not cytotoxic
same,increase of absolute number of Lin-Sca-1+ hematopoietic stem/progenitor cells (HSPC),[2],2.29 fold
same,increase of number of LT-HSCs (CD150+CD48− SLAM+),[2],2.61 fold
same,total cellularity (total cell),[2],slight increase
same,enhancement of proliferation (MTT),KG-1a; any concentration,did not enhance; also recorded: no activity
same,effect on leukemia cell line,KG-1a; high concentration (20 μM),no effect
same,enhancement of proliferation (MTT),KG-1; any concentration,did not enhance; also recorded: no activity
same,effect on leukemia cell line,KG-1; high concentration (20 μM),no effect
